The record followed here is patent US10865222B2, “Neisseria gonorrhoeae therapeutic based on CMP-nonulosonate sugars” (priority 2014, dated 2020).

The target in data set [1] is T1, Lst sialyltransferase from N. gonorrhoeae F62 (Neisseria gonorrhoeae, UniProt P72074).
T1 construct: made in house; host or cells: Escherichia coli
Briefly: Lst sialyltransferase acceptor specificity with CMP-Neu5Ac and CMP-Leg5Ac7Ac donors (TLC). The data set is classed as biochemical. Particulars: for removal of the nonulosonate from modified LacNAc acceptors by Lst over time: 2 h versus 20 h. As for the experimental part: (§1) FIG. 11. N. gonorrhoeae Lst sialyltransferase efficiently legylates a LacNAc acceptor. The acceptor specificity of N. gonorrhoeae Lst sialyltransferase was assessed using CMP-Neu5Ac and CMP-Leg5Ac7Ac donors. The various acceptors tested were LacNAc or Galβ-1,4-GlcNAc-β-FCHASE, Lacto-N-biose or Galβ-1,3-GlcNAc-β-FCHASE, TAg or Galβ-1,3-GalNAc-α-FCHASE, and Pk or Galα-1,4-Galβ-1,4-Glc-β-FCHASE. Lst enzyme preparations (2.5 μg per assay) were incubated with 2.5 pmoles of each acceptor with either 3 mM CMP-Neu5Ac or 3 mM CMP-Leg5Ac7Ac for either 2 or 20 h as indicated. Reactions were then examined by TLC. Arrows indicate the general vicinity of FCHASE acceptors (top spots), whereas arrowheads indicate the general vicinity of modified FCHASE acceptors (bottom spots—enzyme product).
as §1, with “The” for “FIG. 11. N. gonorrhoeae Lst sialyltransferase efficiently legylates a LacNAc acceptor. The”, “product) (FIG. 11).” for “product).”
Lst sialyltransferase from N. gonorrhoeae F62 was recombinantly produced in Escherichia coli. Total membranes were isolated by ultracentrifugation at 100,000×g, resuspended in 0.2% Triton X-100, 50 mM Tris pH 7.5, 100 mM NaCl and incubated for 2 h at 4° C. […] N. gonorrhoeae Lst enzymatic assays were performed using 2.5 pmoles of 4 different FCHASE acceptors; LacNAc or Galβ-1,4-GlcNAc-β-FCHASE, Lacto-N-biose or Galβ-1,3-GlcNAc-β-FCHASE, TAg or Galβ-1,3-GalNAc-α-FCHASE, Pk or Galα-1,4-Galβ-1,4-Glc-β-FCHASE. CMP-Neu5Ac donor assays contained 50 mM Tris pH 7.5, whereas CMP-Leg5Ac7Ac donor assays contained 50 mM MES pH 6. All reactions contained 10 mM MnCl2, 3 mM CMP-sugar donor and 2.5 μg Lst enzyme. Reactions were incubated at 30° C. for either 2 h or 20 h as indicated. Upon completion of the reactions, stop solution was added (final concentration of 0.5% SDS, 5 mM EDTA, 25% acetonitrile) and an aliquot was run on TLC using EtOAc:MeOH:H2O:HOAc 4:2:1:0.1 as the mobile phase.

The target in data set [2] is T2, gonococcal LOS sialyltransferase (Lst) (Neisseria gonorrhoeae, UniProt P72074).
T2 construct: served as substrates for gonococcal Lst in the context of live bacteria; endogenous in cells; host or cells: N. gonorrhoeae F62 ΔlgtD (live bacteria)
T2 sequence (P72074 whole entry): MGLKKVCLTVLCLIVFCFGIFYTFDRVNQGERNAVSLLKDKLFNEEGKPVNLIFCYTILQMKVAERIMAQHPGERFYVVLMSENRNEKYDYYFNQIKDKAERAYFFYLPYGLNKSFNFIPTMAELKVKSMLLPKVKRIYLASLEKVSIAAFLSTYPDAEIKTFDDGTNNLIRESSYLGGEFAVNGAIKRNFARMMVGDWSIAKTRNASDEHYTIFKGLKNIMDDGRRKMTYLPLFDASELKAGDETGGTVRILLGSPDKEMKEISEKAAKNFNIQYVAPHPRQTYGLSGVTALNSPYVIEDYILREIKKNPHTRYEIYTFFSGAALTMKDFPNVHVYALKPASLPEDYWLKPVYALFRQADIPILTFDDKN
The data set is classed as cell-based, N. gonorrhoeae. Particulars: CMP salt 30 μM (20 μg/ml), 2 h at 37° C. As for the experimental part: FIG. 1. Substrate specificity of gonococcal LOS sialyltransferase (Lst) N. gonorrhoeae strain F62 ΔIgtD was grown in standard gonococcal liquid media alone (‘No sialic acid’) or in media supplemented with CMP salts of the indicated sialic acid or nonulosonic acid, each at a concentration of 20 μg/ml (˜30 μM), for 2 h at 37° C. Bacteria were washed, pellets treated with protease K, lysed in 4×LDS buffer and lysates were separated on 12% Bis-Tris gels using MES running buffer. LOS was transferred to a PVDF membrane and probed with mAb 3F11 that recognizes the lacto-N-neotetraose only in the non-sialylated state; the addition of a sialic acid or nonulosonate residue abrogates mAb 3F11 binding (upper panel). LOS was also visualized by silver staining (middle panel). Sialylation or nonulosonate (NulO) modification was also quantified using whole cell ELISA with mAb 3F11 (lower graph).
To define the substrate specificity of gonococcal LOS sialyltransferase, N. gonorrhoeae F62 ΔIgtD was grown in media alone, or media that contained the CMP-activated derivatives of 7 nonulosonates (listed in Table 1), each at a concentration of 30 μM (20 μg/ml). Following incubation for 2 h at 37° C., bacteria were washed, lysed with protease K/LDS sample buffer and separated on 12% Bis-tris gels. Blots were probed with mAb 3F11, which binds to the terminal lactosamine residue of lacto-N-neotetraose (LNT); any extension beyond the terminal Gal (in this instance with a nonose) would abrogate 3F11 binding. […] Whole cell ELISA with mAb 3F11 confirmed results of western blotting (FIG. 1, lower graph).
Bacteria (F62 ΔIgtD) grown overnight on chocolate agar plates were suspended in gonococcal liquid media supplemented with IsoVitaleX (11) that contained specified concentrations of the CMP-nonulosonate. Bacteria were then incubated at 37° C. for the period specified in each experiment.
Gonococcal lysates treated with protease K (100 μg/ml) and NuPAGE® LDS Sample Buffer (4×) (Invitrogen) were separated on NuPAGE® 12% Bis-Tris (Invitrogen) gels using Novex® MES running buffer (Invitrogen) followed by sliver staining with the Bio-Rad Silver Stain Kit, or were transferred to an Immobilon PVDF membrane (Millipore). Membranes were blocked with PBS/1% milk and probed with tissue culture supernatants that contained mAb 3F11. mAb 3F11-reactive LOS bands were disclosed with anti-mouse IgM conjugated to alkaline phosphatase followed by the addition of BCIP®/NBT-Purple Liquid Substrate (Sigma).

The format of data set [3] is physicochemical. From the text: Importantly, Neu5Ac9Az/Neu5Ac9Ac and Leg5Ac7Ac differ from Neu5Ac at carbon 9 and carbons 7 and 9, respectively. As well, Neu5Gc8Me differs from Neu5Gc at carbon 8. As such, carbons 7, 8 and 9 within the exocyclic moiety of nonulosonate sugars appear to play a critical role in the avoidance of serum mediated killing by N. gonorrhoeae, as evidenced by the enhanced serum-mediated killing with CMP-Neu5Ac9Az, CMP-Neu5Ac9Ac, CMP-Leg5Ac7Ac and CMP-Neu5Gc8Me, that was not observed with either CMP-Neu5Ac or CMP-Neu5Gc only feeding controls.

“Also recorded” adds a separate entry of the source.

T1 sequence (P72074 whole entry): as above

With “5,7-diacetamido-3,5,7,9-tetradeoxy-D-glycero-D-galacto-nonulosonic acid [CMP-Leg5Ac7Ac]”, in data set [1] (3 mM CMP-sugar donor, 2.5 μg Lst), the “product conversion of LacNAc acceptor” value is recorded as about 100%. Besides, the “removal of the nonulosonate from modified LacNAc acceptors by Lst over time” value in data set [1] is given as “this was not observed”. Also, the “mAb 3F11 binding / incorporation of nonulosonate onto LNT LOS (use as Lst substrate)” value (“mAb 3F11 binding / incorporation” below) in data set [2] was “decreased binding of mAb 3F11; also recorded: least incorporated”.

Take `COC(CO)C(O)C1OC(OP(=O)(O)OCC2OC(n3ccc(N)nc3=O)C(O)C2O)(C(=O)O)CC(O)C1NC(=O)CO` [CMP-Neu5Gc8Me, CMP-5-hydroxyacetamido-8-O-methyl-3,5-dideoxy-D-glycero-D-galacto-nonulosonic acid]: in data set [2], the “mAb 3F11 binding / incorporation” value is “decreased binding of mAb 3F11”.

`CC(=O)N[C@H]1[C@H]([C@H](O)[C@H](O)CN=[N+]=[N-])OC(OP(=O)(O)OC[C@H]2O[C@@H](n3ccc(N)nc3=O)[C@H](O)[C@@H]2O)(C(=O)O)C[C@@H]1O` (stereo partly drawn) [CMP-Neu5Ac9Az, CMP-5-acetamido-9-azido-3,5,9-trideoxy-D-glycero-D-galacto-nonulosonic acid]: in data set [2], the “mAb 3F11 binding / incorporation” value is “decreased binding of mAb 3F11”.

In the case of `CC(=O)NC1C(O)CC(OP(=O)(O)OCC2OC(n3ccc(N)nc3=O)C(O)C2O)(C(=O)O)OC1C(O)C(O)CO` [CMP-Neu5Ac, CMP-5-acetamido-3,5-dideoxy-D-glycero-D-galacto-nonulosonic acid, reference compound], the “utilization of Lacto-N-biose, TAg and Pk acceptors” value in data set [1] (3 mM CMP-sugar donor, 2 or 20 h) was “all but TAg could be efficiently utilized”. For the same molecule, in data set [1], the “removal of the nonulosonate from modified LacNAc acceptors by Lst over time” value is on record as “can remove Neu5Ac from modified LacNAc acceptors over time”. In data set [2], the “mAb 3F11 binding / incorporation” value is “decreased binding of mAb 3F11”.

With `CC(=O)N[C@H]1[C@H]([C@H](O)[C@H](O)COC(C)=O)OC(OP(=O)(O)OC[C@H]2O[C@@H](n3ccc(N)nc3=O)[C@H](O)[C@@H]2O)(C(=O)O)C[C@@H]1O` (stereo partly drawn) [CMP-Neu5Ac9Ac, CMP-5-acetamido-9-O-acetyl-3,5-dideoxy-D-glycero-D-galacto-nonulosonic acid], the “mAb 3F11 binding / incorporation” value in data set [2] is given as “decreased binding of mAb 3F11”. For the same molecule, in data set [3], the “stability of the preparation” value was “spontaneous breakdown of the 9OAc group”.
